In US10060935B2, “ApoIII and the treatment and diagnosis of diabetes” (BioCrine AB, priority 2003, dated 2018):
Entries after “also recorded” stand apart in the source; their conditions may differ.

Experiments:
[1] = system: voltage-gated L-type Ca2+-channel; experiment: Perforated-patch whole-cell patch clamp of Ca2+ currents in β-cells; type: cell-based, mouse; settings: β-cells incubated with 10 μg/ml apoCIII overnight; depolarizations −10 to 10 mV from holding potential −70 mV
Procedure: Patch Clamp Whole-cell Ca^2+ currents were recorded by using the perforated-patch variant of the whole-cell patch-clamp recording technique to eliminate the loss of soluble cytoplasmic components. Electrodes were filled with (in mM): 76 Cs2SO4, 1 MgCl2, 10 KCl, 10 NaCl, and 5 HEPES (pH 7.35), as well as amphotericin B (0.24 mg/ml) to permeabilize the cell membrane and allow low-resistance electrical access without breaking the patch. Pancreatic β-cells were incubated in RPMI 1640 medium with apoCIII (10:g/ml) or vehicle overnight. The cells were bathed in a solution containing (in mM): 138 NaCl, 10 tetraethylammonium chloride, 10 CaCl2, 5.6 KCl, 1.2 MgCl2, 5 HEPES and 3 D-glucose (pH 7.4). Whole-cell currents induced by voltage pulses (from a holding potential of −70 mV to several clamping potentials from −60 to 50 mV in 10 mV increments, 100 ms, 0.5 Hz) were filtered at 1 kHz and recorded. All recordings were made with an Axopatch 200 amplifier (Axon Instruments, Foster City, Calif.) at room temperature (about 22° C.). Acquisition and analysis of data were done using the software program pCLAMP6 (Axon Instruments, Foster City, Calif.).

RINm5F cells = experiment: Flow cytometric analysis of cell death (Annexin V / propidium iodide); type: cell-based; settings: 40 μg/ml apoCIII added to culture medium with 10% control serum, 36 h
Procedure: Quantification of apoCIII Sera were collected and prepared as described above. The relative amounts of apoCIII in T1D serum and control serum, respectively were evaluated by comparisons of the peak area corresponding to apoCIII in the second RP-HPLC. • Flow Cytometric Analysis of Cell Death RINm5F cells were cultured for 36 h in the presence of 10% control serum, control serum and 40 μg/ml apoCIII or T1D serum with or without 100 or 200 μg/ml anti-apoCIII. The whole cell population was collected and stained with EGFP-conjugated Annexin V and propidium iodide (PI) (BD PharMingen) and analyzed on a FACscan using CELLQuest acquisition software (Becton Dickinson, Immunocytometry System). FACS gating, based on forward and side scatter, was used to exclude cellular debris and autofluorescence and typically 10 000 cells were selected for analysis.

pancreatic β-cells = experiment: Measurements of [Ca2+]i (fura-2) in β-cells upon depolarization with 25 mM KCl; type: cell-based, mouse; settings: for increase in [Ca2+]i / Ca2+ influx upon depolarization: 10 μg/ml, incubation of β-cells, versus vehicle (0.1% TFA) control
Procedure: Preparation of Cells Adult mice from a local colony (3) were starved overnight. Pancreatic islets were isolated by a collagenase technique and cell suspensions were prepared as previously described (4, 5). Cells were seeded onto glass coverslips and cultured at 37° C. in a humidified atmosphere of 5% CO2 in air. • Preparation and Purification of Sera: Sera from T1D patients and control subjects were collected, identically sterile-processed and stored frozen at −20° C. until used. The sera were heat-inactivated by incubation at 56° C. for 30 min. Thereafter β-cells were incubated overnight in RPMI 1640 culture medium with 10% of the sera and changes in [Ca^2+]i were recorded, subsequent to depolarization with 25 mM KCl. The five T1D sera that induced an enhanced [Ca^2+]i response were centrifuged and the supernatant was passed through a […] sterile filter. Samples were loaded on Sep-Pak C18 (Waters, Ma) preconditioned with 0.1% TFA. After a wash with 0.1% TFA, proteins were eluted with 60% acetonitrile in 0.1% TFA and thereafter lyophilized. Batches of one milligram of the lyophilized sample were dissolved in 500 μl 0.1% TFA, centrifuged and injected into a RP-HPLC with a Vydac C18 (0.46×25 cm) column (Grace Vydac, Hesperia, Ca). The separation was made using a linear gradient of 20-60% acetonitrile in 0.1% TFA for 40 min at 1 ml/min. Fractions of 1 ml were collected and lyophilized.
Measurements of [Ca^2+]i Cells, attached to coverslips, were pretreated with the different compounds as described in the results and thereafter incubated in basal medium with 2 μM fura-2AM (Molecular Probes, Eugene, Oreg.) for 30 min. The coverslips were mounted as the bottom of an open chamber and cells were perfused with medium. Fluorescence signals were recorded with a SPEX Fluorolog-2 system connected to an inverted Zeiss Axiovert epifluorescence microscope. The excitation and emission wavelengths were 340/380 and 510 nm, respectively. The results are presented as 340/380 excitation ratios, directly representative of [Ca^2+]i (7).

Ca2+-channel = experiment: Immunoblot experiments for direct interaction with the Ca2+-channel; type: binding; settings: immunoblot (data not shown)

apolipoprotein CIII [apoCIII]
Ca2+-channel currents [1]: larger Ca^2+-channel currents than control cells; also recorded: activation of the voltage-gated L-type Ca^2+-channel | cell death (RINm5F cells): increased cell death | cell death (RINm5F cells; listed as ApoCIII): β-cell death | increase in [Ca2+]i / Ca2+ influx upon depolarization (pancreatic β-cells): stimulate Ca^2+ influx | increase in [Ca2+]i / Ca2+ influx upon depolarization (pancreatic β-cells; listed as ApoCIII): increase in [Ca^2+]i | effect on [Ca2+]i (pancreatic β-cells; apoCIII 1, 3 and 6 μg/ml in culture medium): did not see any effects | effect on [Ca2+]i (pancreatic β-cells; apoCIII 10-50 μg/ml in culture medium): responses | direct interaction with the Ca2+-channel (Ca2+-channel): not revealed a direct interaction
